{"source": "patent US20060058274A1", "about": "“Use of an aldosterone receptor antagonist to improve cognitive function” (Pharmacia Corporation, priority 2000, published 2006)", "key": {"[1]": {"system": "patients with mild-to-moderate hypertension", "assay": "Phase II dose-ranging study of eplerenone in mild-to-moderate hypertension", "format": "in vivo, human", "conditions": "50 mg BID", "from_the_text": "The adjusted mean changes (in mmHg) in diastolic blood pressure (DBP) and systolic blood pressure (SBP) from baseline to final visit are shown in Table 1A."}, "[2]": {"system": "patients with severe heart failure", "assay": "Clinical study in patients with severe heart failure: HRQOL by SF-36", "format": "in vivo, human", "conditions": "for Change from baseline in SF-36 Bodily Pain / Change from baseline in SF-36 General Health / Change from baseline in SF-36 Mental Composite Summary (MCS) / Change from baseline in SF-36 Mental Health / Change from baseline in SF-36 Physical Composite Summary (PCS) / Change from baseline in SF-36 Physical Functioning / Change from baseline in SF-36 Role Limitations - Emotional / Change from baseline in SF-36 Role Limitations - Physical / Change from baseline in SF-36 Social Functioning / Change from baseline in SF-36 Vitality: 25 mg daily, mean ± SD; for Effect size estimate for change in SF-36 Bodily Pain / Effect size estimate for change in SF-36 General Health / Effect size estimate for change in SF-36 Mental Composite Summary (MCS) / Effect size estimate for change in SF-36 Mental Health / Effect size estimate for change in SF-36 Physical Composite Summary (PCS) / Effect size estimate for change in SF-36 Physical Functioning / Effect size estimate for change in SF-36 Role Limitations - Emotional / Effect size estimate for change in SF-36 Role Limitations - Physical / Effect size estimate for change in SF-36 Social Functioning / Effect size estimate for change in SF-36 Vitality: [mean (spironolactone) − mean (placebo)]/(SD placebo at baseline)", "from_the_text": "Patients: One thousand six hundred and sixty-three (1,663) patients with severe heart failure were enrolled in the study. […] Treatment with digitalis and vasodilators was allowed, but potassium-sparing diuretics were not permitted. Oral potassium supplements were not recommended unless hypokalemia (serum potassium ≦3.5 mmol per liter) developed. A low salt diet (100-200 mEg/day, sodium) was recommended to all patients. Patients were excluded from the trial if they had clinically significant operable valvular disease (other than mitral or tricuspid regurgitation), congenital heart disease, unstable angina, primary hepatic failure, active malignancy, a heart transplant or were a candidate for heart transplantation, or any life threatening diseae (other than heart failure). Other criteria for exclusion were a serum creatinine concentration >2.5 mg per deciliter (>220 μmol per liter) or a serum potassium concentration >5.0 mmol per liter. The protocol was approved by the Institutional Review Boards or Ethics Committees of all participating institutions. Written informed consent was obtained from all patients.\nStudy Group: Subjects were randomly assigned to receive either spironolactone 25 mg daily or placebo. HRQOL was assessed in a subsample of 90 subjects in 2 participating countries using the Medical Outcomes Trust Short-Form 36-item Health Survey (SF-36). Assessments were scheduled at baseline, 1, 2, 3, and 6 months after initiation of therapy.\nHRQOL Evaluation: HRQOL was assessed using the Short-Form 36-item Health Survey (SF-36). (Ware J E, Snow K K, Kosinski M, Gandek B. SF-36 Health Survey: Manual and Interpretation Guide. Boston, Mass.: The Health Institute, 1993). Assessments were scheduled at baseline, 1, 2, 3, 6 and 12 months after initiation of therapy. The analysis presented herein is limited to 6-month follow-up as less than 50% of subjects had 12-month follow-up data.\nStatistical Analyses: Change from baseline was assessed for the 8 dimension scores of the SF-36, as well as the Physical (PCS) and Mental Composite Summary (MCS) scores. (Ware J E, Kosinski M, Keller S D. SF-36 Physical and Mental Health Summary Scales: A User's Manual. Boston, Mass.: The Health Institute, 1994). The PCS and MCS are generated to represent weighted summaries scores of the four physical functioning scales and four mental functioning scales of the SF-36. The summary scores are generally regarded as having improved reliability and precision as they are based on an incrementally larger number of health states contained in the SF-36 items. (Ware J E, Kosinski M, Keller S D. SF-36 Physical and Mental Health Summary Scales: A User's Manual. Boston, Mass.: The Health Institute, 1994.) Changes from baseline scores were compared between groups using non-directional independent groups t-tests. An alpha level of 0.05 was considered to be statistically significant. As an indicator of the responsiveness of the SF-36 scales to changes in health-related quality of life in severe heart failure patients, effect size estimates were also calculated. Effect size estimates were calculated as [mean (spironolactone)−mean (placebo)]/(SD placebo at baseline). (Hays R D, Anderson R, Revicki D. Psychometric considerations in evaluating health-related quality of life. Quality of Life Research 1993;2:441-449; Samsa G, Edelman D, Rothman M L, et al. Determining clinically important differences in health status measures. A general approach with illustrations to the Health Utilities Index Mark II. PharmacoEconomics1999;15:141-155). All analyses were carried out using SAS System for Windows, Release 6.12. (SAS version 6.12, SAS Institute Inc., North Carolina, 1996).\nPatient Characteristics: Baseline HRQOL was assessed in a subsample of 90 subjects in 2 participating countries (i.e., Brazil and Canada). Forty-six subjects were randomized to spironolactone; 44 were randomized to the placebo arm. Sixty subjects had complete data for the 6 months of follow-up."}, "women with PMS": {"system": "women with PMS", "conditions": "cited from earlier work"}, "rats": {"system": "rats", "conditions": "prior treatment; scopolamine cholinergic blockade; cited from earlier work"}, "animal models": {"system": "animal models", "conditions": "cited from earlier work"}, "[3]": {"conditions": "ambulatory blood pressure monitoring"}, "[4]": {"conditions": "3 months, listed as spironolactone"}, "[5]": {"conditions": "6 months, listed as spironolactone"}, "[6]": {"conditions": "added to conventional heart failure therapy, severe HF"}, "[7]": {"conditions": "100 mg daily from day 14 of menstrual cycle, compared to placebo, p<0.001"}}, "note": "Marks after values point to notes of the source that are not given here."}
{"smiles": "CC(=O)SC1CC2=CC(=O)CCC2(C)C2CCC3(C)C(CCC34CCC(=O)O4)C12", "note": "(stereo not shown) [Spironolactone, 17-hydroxy-7″-mercapto-3-oxo-17″-pregn-4-ene-21-carboxylic acid γ-lactone acetate]", "values": [{"measurement": "adjusted mean change in ABPM DBP from baseline to final visit", "setting": "[1]; [3]", "result": "−8.7", "unit": "mmHg"}, {"measurement": "adjusted mean change in ABPM SBP from baseline to final visit", "setting": "[1]; [3]", "result": "−15.8", "unit": "mmHg"}, {"measurement": "adjusted mean change in Cuff DBP from baseline to final visit", "setting": "[1]; eight-week study", "result": "−9.5", "unit": "mmHg"}, {"measurement": "adjusted mean change in Cuff SBP from baseline to final visit", "setting": "[1]; eight-week study", "result": "−16.7", "unit": "mmHg"}, {"measurement": "Change from baseline in SF-36 Bodily Pain", "setting": "[2]; 3 months", "result": "19.6 ± 30.0^a"}, {"measurement": "Change from baseline in SF-36 General Health", "setting": "[2]; 3 months", "result": "9.7 ± 20.4^a"}, {"measurement": "Change from baseline in SF-36 Mental Composite Summary (MCS)", "setting": "[2]; 3 months", "result": "13.2 ± 11.8^a,b"}, {"measurement": "Change from baseline in SF-36 Mental Health", "setting": "[2]; 3 months", "result": "19.9 ± 21.2^a,b"}, {"measurement": "Change from baseline in SF-36 Physical Composite Summary (PCS)", "setting": "[2]; 3 months", "result": "3.0 ± 8.1^a"}, {"measurement": "Change from baseline in SF-36 Physical Functioning", "setting": "[2]; 3 months", "result": "7.9 ± 19.4^a"}, {"measurement": "Change from baseline in SF-36 Role Limitations - Emotional", "setting": "[2]; 3 months", "result": "37.8 ± 46.1^a"}, {"measurement": "Change from baseline in SF-36 Role Limitations - Physical", "setting": "[2]; 3 months", "result": "23.3 ± 40.1^a"}, {"measurement": "Change from baseline in SF-36 Social Functioning", "setting": "[2]; 3 months", "result": "24.6 ± 33.6^a"}, {"measurement": "Change from baseline in SF-36 Vitality", "setting": "[2]; 3 months", "result": "16.7 ± 24.1^a"}, {"measurement": "Change from baseline in SF-36 Mental Composite Summary (MCS)", "setting": "[2]; [4]", "result": "13.2±11.8"}, {"measurement": "Change from baseline in SF-36 Mental Health", "setting": "[2]; [4]", "result": "19.9±21.2"}, {"measurement": "Effect size estimate for change in SF-36 Bodily Pain", "setting": "[2]; 3 months", "result": 0.40}, {"measurement": "Effect size estimate for change in SF-36 General Health", "setting": "[2]; 3 months", "result": 0.03}, {"measurement": "Effect size estimate for change in SF-36 Mental Composite Summary (MCS)", "setting": "[2]; 3 months", "result": 0.86}, {"measurement": "Effect size estimate for change in SF-36 Mental Health", "setting": "[2]; 3 months", "result": 0.76}, {"measurement": "Effect size estimate for change in SF-36 Physical Composite Summary (PCS)", "setting": "[2]; 3 months", "result": "−0.21"}, {"measurement": "Effect size estimate for change in SF-36 Physical Functioning", "setting": "[2]; 3 months", "result": "−0.23"}, {"measurement": "Effect size estimate for change in SF-36 Role Limitations - Emotional", "setting": "[2]; 3 months", "result": 0.48}, {"measurement": "Effect size estimate for change in SF-36 Role Limitations - Physical", "setting": "[2]; 3 months", "result": 0.33}, {"measurement": "Effect size estimate for change in SF-36 Social Functioning", "setting": "[2]; 3 months", "result": 0.26}, {"measurement": "Effect size estimate for change in SF-36 Vitality", "setting": "[2]; 3 months", "result": "−0.07"}, {"measurement": "Change from baseline in SF-36 Bodily Pain", "setting": "[2]; 6 months", "result": "15.9 ± 30.5^a"}, {"measurement": "Change from baseline in SF-36 General Health", "setting": "[2]; 6 months", "result": "12.0 ± 22.3^a"}, {"measurement": "Change from baseline in SF-36 Mental Composite Summary (MCS)", "setting": "[2]; 6 months", "result": "10.3 ± 12.8^a"}, {"measurement": "Change from baseline in SF-36 Mental Health", "setting": "[2]; 6 months", "result": "17.5 ± 22.9^a,b"}, {"measurement": "Change from baseline in SF-36 Physical Composite Summary (PCS)", "setting": "[2]; 6 months", "result": "3.9 ± 9.1^a"}, {"measurement": "Change from baseline in SF-36 Physical Functioning", "setting": "[2]; 6 months", "result": "11.4 ± 21.5^a"}, {"measurement": "Change from baseline in SF-36 Role Limitations - Emotional", "setting": "[2]; 6 months", "result": "24.0 ± 39.9^a"}, {"measurement": "Change from baseline in SF-36 Role Limitations - Physical", "setting": "[2]; 6 months", "result": "14.8 ± 32.3^a"}, {"measurement": "Change from baseline in SF-36 Social Functioning", "setting": "[2]; 6 months", "result": "23.1 ± 32.1^a"}, {"measurement": "Change from baseline in SF-36 Vitality", "setting": "[2]; 6 months", "result": "19.0 ± 25.5^a"}, {"measurement": "Change from baseline in SF-36 Mental Composite Summary (MCS)", "setting": "[2]; [5]", "result": "10.3±12.8"}, {"measurement": "Change from baseline in SF-36 Mental Health", "setting": "[2]; [5]", "result": "17.5±22.9"}, {"measurement": "Effect size estimate for change in SF-36 Bodily Pain", "setting": "[2]; 6 months", "result": 0.28}, {"measurement": "Effect size estimate for change in SF-36 General Health", "setting": "[2]; 6 months", "result": 0.08}, {"measurement": "Effect size estimate for change in SF-36 Mental Composite Summary (MCS)", "setting": "[2]; 6 months", "result": 0.64}, {"measurement": "Effect size estimate for change in SF-36 Mental Health", "setting": "[2]; 6 months", "result": 0.59}, {"measurement": "Effect size estimate for change in SF-36 Physical Composite Summary (PCS)", "setting": "[2]; 6 months", "result": "−0.07"}, {"measurement": "Effect size estimate for change in SF-36 Physical Functioning", "setting": "[2]; 6 months", "result": "−0.11"}, {"measurement": "Effect size estimate for change in SF-36 Role Limitations - Emotional", "setting": "[2]; 6 months", "result": "−0.42"}, {"measurement": "Effect size estimate for change in SF-36 Role Limitations - Physical", "setting": "[2]; 6 months", "result": "−0.18"}, {"measurement": "Effect size estimate for change in SF-36 Social Functioning", "setting": "[2]; 6 months", "result": 0.20}, {"measurement": "Effect size estimate for change in SF-36 Vitality", "setting": "[2]; 6 months", "result": 0.13}, {"measurement": "effect on physical health or functioning", "setting": "[2]; [6]", "result": "no detrimental effect"}, {"measurement": "impact on mental health status", "setting": "[2]; [6]", "result": "strong, positive impact"}, {"measurement": "negative mood symptom scores", "setting": "women with PMS; [7]", "result": "significant decrease"}, {"measurement": "somatic symptom scores", "setting": "women with PMS; [7]", "result": "significant decrease"}, {"measurement": "irritability, depression, feeling of swelling, breast tenderness and food craving", "setting": "women with PMS; in comparison to placebo", "result": "significantly improved"}, {"measurement": "enhanced reactivity to novelty", "setting": "rats", "result": "ameliorated"}, {"measurement": "myocardial fibrosis", "setting": "animal models", "result": "prevents"}]}
